Test results as given in PMC8763920, “Unprotected peptide macrocyclization and stapling via a fluorine-thiol displacement reaction” (Nature Communications, 2022).
*1 amine or outer side, *2 acyl side, *3 side chain or, on linkers, in order; H or OH if unused. Where a SMILES comes first, the peptide text is derived from it. Bridges are numbered along the chain shown (N, C = ends). [ ]: non-standard residue; d: D form. The star is where a group is joined. Benzene(1,3-(CH2SCH2CO)2) = O=C(CSCc1cccc(CSCC(=O)[*:2])c1)[*:1]; FITC = O=C1OC2(c3ccc(O)cc3Oc3cc(O)ccc32)c2ccc(NC(=S)*)cc21; Dap = NC[C@H](N)C(=O)O; βAla = NCCC(=O)O

Assays:
HEK293 cells = assay: 5-day growth of HEK293 control cells; assay type: cell-based; conditions: 5 days, CellTiter Glo, up to 16 µM
Method: (§1) For growth inhibition by Axin peptides, DLD-1 cells were cultured and maintained as mentioned before. Right before the assay, cells were resuspended in fresh RPMI media supplemented with 10% FBS, 100 IU/mL penicillin, and 100 µg/mL streptomycin, and plated onto 96-well white flat-bottom plates at 1000 cells per well (90 µL media/well). After overnight incubation, peptide samples were serially diluted as 10× stock in PBS buffer (10% DMSO), and were added to the plated cells at 10 µL stock solution/well in triplicate to make final treatment concentrations of 0, 0.0625, 0.125, 0.25, 0.5, 1, 2, 4, 8, 16 µM. […] The samples on the plates were incubated at 37 °C, 5% CO2 for 5 days, and the cell viability was evaluated by CellTiter Glo (Promega). The luminescence signals were recorded by the H1 synergy plate reader (Biotek) using the Gen5 software, and were normalized against the control groups (100%) for which cells were only treated with the vehicle (PBS/1% DMSO). Control HEK293 cells were cultured in DMEM media supplemented with 10% FBS, 1% penicillin/streptomycin at 37 °C, 5% CO2, then incubated with peptide samples and measured for viability in the same manner as mentioned above. […] After 24 h of incubation, the cell viabilities were measured and normalized against the vehicle control groups the same as mentioned above.

DLD-1 cells [1] = assay: 5-day growth inhibition of DLD-1 cancer cells; assay type: cell-based; conditions: 5 days, CellTiter Glo, 1000 cells per well, n = 3; read-out: EC50, inhibition of DLD-1 cell growth
Method: For growth inhibition by Axin peptides, DLD-1 cells were cultured and maintained as mentioned before. Right before the assay, cells were resuspended in fresh RPMI media supplemented with 10% FBS, 100 IU/mL penicillin, and 100 µg/mL streptomycin, and plated onto 96-well white flat-bottom plates at 1000 cells per well (90 µL media/well). After overnight incubation, peptide samples were serially diluted as 10× stock in PBS buffer (10% DMSO), and were added to the plated cells at 10 µL stock solution/well in triplicate to make final treatment concentrations of 0, 0.0625, 0.125, 0.25, 0.5, 1, 2, 4, 8, 16 µM. The wells on the edges of plates were filled with PBS buffer to avoid unwanted evaporation of samples. The samples on the plates were incubated at 37 °C, 5% CO2 for 5 days, and the cell viability was evaluated by CellTiter Glo (Promega). The luminescence signals were recorded by the H1 synergy plate reader (Biotek) using the Gen5 software, and were normalized against the control groups (100%) for which cells were only treated with the vehicle (PBS/1% DMSO). Control HEK293 cells were cultured in DMEM media supplemented with 10% FBS, 1% penicillin/streptomycin at 37 °C, 5% CO2, then incubated with peptide samples and measured for viability in the same manner as mentioned above. For Axin peptide analogues’ time-dependent cytotoxicity, peptide analogues were mixed with cells (1000 cells per well) at a final concentration of 0, 5, 10, and 15 µM. The cell viabilities were meaured via CellTiter Glo after incubation of 1 day, 2 days, and 4 days, respectively. […] After 24 h of incubation, the cell viabilities were measured and normalized against the vehicle control groups the same as mentioned above.

[2] = tested on: β-catenin mediated transcription; assay: TOPFlash luciferase reporter assay; assay type: cell-based; conditions: DLD-1 cells, 15 μM peptide, 24 h
Method: For evaluation of Axin peptide analogues, DLD-1 cells were cultured in 96-well flat bottom plates up to 70–80% confluency and were transfected with 200 ng M50 TOPFlash plasmid (a gift from Professor Raymond Habas, Temple Biology) and 50 ng pRL-TK plasmid (Promega). 12 h after transfection, cells were treated with DMSO vehicle or 15 μM of Axin peptide analogues for another 24 h. Luciferase activity was measured using the Dual-Glo luciferase assay kit (Promega) on a Biotek Synergy H1 plate reader using the Gen5 software. Data were processed as firefly: Renilla luciferase ratio for each control or treatment group, and were further normalized against the vehicle control group (100%) as the Relative Activities.

DLD-1 cells [3] = assay: Time-dependent cytotoxicity/growth inhibition of Axin peptide analogues; assay type: cell-based; conditions: 0, 5, 10, 15 µM; after 48 h of incubation; CellTiter Glo
Method: as §1

DLD-1 cells [4] = assay: Cell viability assay for imaging studies, Axin analogues; assay type: cell-based; conditions: 10 µM, 12 h incubation, CellTiter-Glo
Method: For Jurkat cells, after imaging studies with SAHBA analogues (5 µM, 4 h of incubation), viabilities were measured by mixing with the CellTiter-Glo reagent and the chemiluminescence signals were recorded and processed the same as metioned above. Similarly, confocal imaging of DLD-1 cells for the penetration pathway studies were followed by viability measurements. Cells treated with vehicle groups were also analysed and counted as the 100% control.

HeLa cells = assay: Cell penetration of STAD peptides, confocal imaging; assay type: cell-based; conditions: 5 µM peptide, 2 h, confocal microscopy, 78 normalized as 1, mean ± SEM
Method: Hoechst 33342 dye and FITC-labelled peptides were excited with 405 and 488 nm lasers (Coherent OBIS), respectively. Images were analysed with NIH ImageJ software. Using the “analyse particles” function, we measured the area and intensity of individual cells (Supplementary Fig. 34a)[87]. […] However, from the distribution of data we found the best fit curve to be lognormal. Outliers were then removed using a Grubbs test (Supplementary Fig. 35b)[88]. We determined the optimal bin size for the histogram using the Freedman–Draconis rule[89]. The mean fluorescence intensity from each treatment group was calculated from n ≥ 100 cells. Error bars represented SE. P values were calculated by two sided Welch’s t test for comparison with internalization of RCM-stapled control peptides.
For FITC-labelled SAHBA analogues, 5 μM of each was incubated with Jurkat cells for 4 h[13]. The rest of the imaging procedures were done the same as mentioned above. Likewise, 5 µM of STAD peptides were incubated with HeLa cells for 2 h[71], followed by similar imaging studies; and 2 µM of p53 peptide analouges were mixed with HCT116 wt cells for 4 h before the imaging analysis of their cellular uptake. Cell samples treated with STAD or p53 series of peptide analogues were also simulatenously stained by propidium iodide (PI) to ensure the cell viability and membrane integrity.

circular dichroism = conditions: water; pH ns; 25 °C; 70 uM
[5] = tested on: p53 wild-type HCT-116 cells; assay type: cell-based; conditions: human
[6] = Circular dichroism, % alpha helicity; assay type: physicochemical; conditions: CD, 70 µM peptide, 25 °C, from MRE at 222 nm, three scans averaged; Axin and p53 peptides in water, HIV-targeting peptides in 25% acetonitrile/water
Method: The final concentration of the peptide samples was 70 µM. Circular dichroism (CD) measurements were performed on a Jasco model J-815 spectropolarimeter with a 1 mm Jasco quartz cell over the wavelength range of 180–250 nm. The scans were carried out at 0.2 nm resolution with 4 s average time at 25 °C. Data from three scans were averaged, base line corrected, and normalized to the mean residue ellipticity (MRE) following the equation: [θ]λ = [θ]obs/(10 × l × C × n). [θ]λ is MRE in deg × cm^2 × dmol^−1; [θ]obs is the measured ellipticity; C is the concentration of peptides in M; l is the optical pathlength in cm; and n is the number of residues in peptides. The % alpha helicity was calculated from the MRE values at 222 nm, using the equation % helicity = ([θ]222−[θ]0)/([θ]max−[θ]0) based on the previously reported method. [θ]222 is the MRE value at 222 nm; [θ]max is the maximum theoretical MRE value for a helix of n residues; and [θ]0 is the MRE value of the peptide in random coil conformation that usually equals to (2220-53T)[86].

With CC[C@H](C)[C@@H]1NC(=O)[C@@H](NC(=O)[C@H](CCC(N)=O)NC(=O)[C@@H]2CCCN2C(=O)[C@H](Cc2c[nH]c3ccccc23)NC(=O)[C@H](CCCNC(=N)N)NC(=O)COCCOCCNC(=S)Nc2ccc3c(c2)C(=O)OC32c3ccc(O)cc3Oc3cc(O)ccc32)CNC(=O)CSCc2cccc(c2)CSCC(=O)NC[C@@H](C(=O)N[C@@H](Cc2c[nH]cn2)C(=O)N[C@H](C(=O)N[C@@H](CCCNC(=N)N)C(=O)N[C@@H](CCCNC(=N)N)C(=O)N[C@H](C(=O)N[C@@H](Cc2c[nH]c3ccccc23)C(=O)N[C@@H](CCCNC(=N)N)C(N)=O)C(C)C)C(C)C)NC(=O)[C@H](CC(=O)O)NC(=O)[C@H](CC(C)C)NC1=O [compound 65] the “effect on growth of HEK293 control cells” value (HEK293 cells) was “little effects”, the EC50 (DLD-1 cells [1]) was 2300 ± 400 nM and the “inhibition of β-catenin mediated transcription (TOPFlash)” value [2] was “strong inhibition”. For the same compound, the “effects on DLD-1 cells over a time course of 24–96 h” value (DLD-1 cells [3]) was “significant effects” and the “effect on viability of DLD-1 cells” value (DLD-1 cells [4]) was “did not affect the viability”.

With CC[C@H](C)[C@@H]1NC(=O)[C@@H](NC(=O)[C@H](CC(=O)O)NC(=O)[C@H](C)NC(=O)[C@H](CC(C)C)NC(=O)[C@H](CCC(N)=O)NC(=O)[C@H](CCCCN)NC(=O)[C@H](C)NC(=O)[C@H](Cc2ccc(O)cc2)NC(=O)[C@H](CCCCN)NC(=O)[C@H](CCCCN)NC(=O)CCNC(=S)Nc2ccc3c(c2)C(=O)OC32c3ccc(O)cc3Oc3cc(O)ccc32)CNC(=O)CSCc2cccc(c2)CSCC(=O)NC[C@@H](C(=O)N[C@@H](C)C(=O)N[C@H](C(=O)N[C@@H](CCC(=O)O)C(N)=O)[C@@H](C)O)NC(=O)[C@H](CCCCN)NC(=O)[C@H]([C@@H](C)CC)NC1=O [compound 75] ({FITC-βAla}-KKYAKQLAD[Dap]IIK[Dap]ATE-NH2; linker 10-14 via Benzene(1,3-(CH2SCH2CO)2)) the “mean intensity versus RCM stapled STAD 78” value (HeLa cells) was 2.92 ± 0.08 fold.

In the case of CC(=O)N[C@@H](CCC(N)=O)C(=O)N[C@@H](CO)C(=O)N[C@@H](CCC(N)=O)C(=O)N[C@@H](CCC(N)=O)C(=O)N[C@H](C(=O)N[C@@H](Cc1ccccc1)C(=O)N[C@H]1CNC(=O)CSCc2ccc(cc2)CSCC(=O)NC[C@@H](C(=O)N[C@@H](CCC(N)=O)C(=O)N[C@@H](CC(N)=O)C(N)=O)NC(=O)[C@H](CC(C)C)NC(=O)[C@H](CC(C)C)NC(=O)[C@H](CCCNC(=N)N)NC(=O)[C@H](Cc2c[nH]c3ccccc23)NC(=O)[C@H](CC(C)C)NC(=O)[C@H](CC(N)=O)NC1=O)[C@@H](C)O [compound 82], the helicity (circular dichroism) is reported as 61% and the EC50 [5] is reported as 660 ± 190 nM.

With CC(=O)N[C@@H](CCC(N)=O)C(=O)N[C@@H](CO)C(=O)N[C@@H](CCC(N)=O)C(=O)N[C@@H](CCC(N)=O)C(=O)N[C@H](C(=O)N[C@@H](Cc1ccccc1)C(=O)N[C@H]1CNC(=O)CSCc2ccc(cc2)CSCC(=O)NC[C@H](C(=O)N[C@@H](CCC(N)=O)C(=O)N[C@@H](CC(N)=O)C(N)=O)NC(=O)[C@H](CC(C)C)NC(=O)[C@H](CC(C)C)NC(=O)[C@H](CCCNC(=N)N)NC(=O)[C@H](Cc2c[nH]c3ccccc23)NC(=O)[C@H](CC(C)C)NC(=O)[C@H](CC(N)=O)NC1=O)[C@@H](C)O [compound 87] the helicity (circular dichroism) was 64%, the EC50 [5] was 710 ± 180 nM and the “Helicity (%)” value [6] was 64%.
